Data reported in ChEMBL document CHEMBL4152208, “Synthesis and structure-activity relationships of quinolinone and quinoline-based P2X7 receptor antagonists and their anti-sphere formation activities in glioblastoma cells” (Eur J Med Chem, 2018).
The source made the active and inactive calls. The rule behind the calls is not given here.

Assays:
[1] = Metabolic stability in human liver microsomes assessed as parent compound remaining at 1 uM up to 30 mins in presence of NADPH by LC-MS/MS analysis; format: ADME, microsome; details: read-out: Stability
[2] = target: T1, P2X purinoceptor 7 (Homo sapiens) (UniProt Q99572); assay: Antagonist activity at human P2X7 receptor expressed in HEK293 cells assessed as inhibition of BzATP-induced EtBr uptake at 1 uM after 2 hrs by fluorescence assay relative to control; format: cell-based
T1 sequence (whole entry): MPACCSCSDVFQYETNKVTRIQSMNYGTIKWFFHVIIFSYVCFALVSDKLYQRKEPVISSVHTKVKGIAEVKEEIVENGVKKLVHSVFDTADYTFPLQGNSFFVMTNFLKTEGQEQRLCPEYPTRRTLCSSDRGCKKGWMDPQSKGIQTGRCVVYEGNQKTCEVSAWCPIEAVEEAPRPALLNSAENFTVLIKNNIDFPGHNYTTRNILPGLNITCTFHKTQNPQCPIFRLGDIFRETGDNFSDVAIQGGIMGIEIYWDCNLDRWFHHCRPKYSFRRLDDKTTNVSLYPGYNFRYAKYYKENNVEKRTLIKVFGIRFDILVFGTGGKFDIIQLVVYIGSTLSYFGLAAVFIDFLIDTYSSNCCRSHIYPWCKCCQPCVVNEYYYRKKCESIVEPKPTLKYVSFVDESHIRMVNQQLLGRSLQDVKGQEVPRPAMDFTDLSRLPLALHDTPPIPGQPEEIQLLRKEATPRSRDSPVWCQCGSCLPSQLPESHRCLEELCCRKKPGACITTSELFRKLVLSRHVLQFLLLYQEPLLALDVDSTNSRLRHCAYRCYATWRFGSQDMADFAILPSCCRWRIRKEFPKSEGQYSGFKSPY

[3] = target: T1, P2X purinoceptor 7 (Homo sapiens); assay: Antagonist activity at P2X7 in LPS/IFN gamma differentiated human THP-1 cells assessed as inhibition of BzATP-induced IL-1beta release at 1 uM preincubated for 30 mins followed by BzATP stimulation for 30 mins by ELISA; format: cell-based
P2X purinoceptor 7 [4] = target: T2, P2X purinoceptor 7 (Homo sapiens, UniProt Q99572); assay: Antagonist activity at human P2X7 receptor expressed in HEK293 cells assessed as inhibition of BzATP-induced EtBr uptake after 2 hrs by fluorescence assay relative to control; format: cell-based
T2 sequence (Q99572 whole entry): T1 sequence (whole entry)

[5] = target: T1, P2X purinoceptor 7 (Homo sapiens); assay: Antagonist activity at P2X7 in LPS/IFN gamma differentiated human THP-1 cells assessed as inhibition of BzATP-induced IL-1beta release at 10 uM preincubated for 30 mins followed by BzATP stimulation for 30 mins by ELISA; format: cell-based
[6] = target: T1, P2X purinoceptor 7 (Homo sapiens); assay: Antagonist activity at human P2X7 receptor expressed in HEK293 cells assessed as inhibition of BzATP-induced EtBr uptake at 10 uM after 2 hrs by fluorescence assay relative to control; format: cell-based
[7] = Cytotoxicity against HEK293 cells expressing human P2X7 receptor assessed as cell survival at 10 uM by MTT assay relative to control; format: cell-based; details: read-out: Survival
P2X purinoceptor 7 [8] = target: T2, P2X purinoceptor 7; assay: Antagonist activity at P2X7 in LPS/IFN gamma differentiated human THP-1 cells assessed as inhibition of BzATP-induced IL-1beta release preincubated for 30 mins followed by BzATP stimulation for 30 mins by ELISA; format: cell-based
Homo sapiens [9] = species on record: Homo sapiens; assay: Antiproliferative activity against human TS15-88 cells at 50 uM after 72 hrs by MTS assay; format: functional, cell-based
Homo sapiens [10] = species on record: Homo sapiens; assay: Antiproliferative activity against human TS15-88 cells at 50 uM after 24 hrs by MTS assay; format: functional, cell-based
[11] = Inhibition of neurosphere formation in human TS15-88 cells assessed as decrease in sphere size at 50 uM after 5 days by microscopic analysis relative to control; format: functional; details: 120 h
[12] = Antiproliferative activity against human TS15-88 cells after 24 to 72 hrs by MTS assay; format: functional, cell-based
[13] = Effective permeability of the compound at 50 uM after 4 hrs by BBB-PAMPA method; format: ADME; details: read-out: Peff
[14] = Metabolic stability in mouse liver microsomes assessed as parent compound remaining at 1 uM up to 30 mins in presence of NADPH by LC-MS/MS analysis; format: ADME, microsome; details: read-out: Stability
[15] = Kinetic solubility of the compound in PAMPA buffer at 50 uM by nepheolometry method; format: physicochemical
[16] = Metabolic stability in rat liver microsomes assessed as parent compound remaining at 1 uM up to 30 mins in presence of NADPH by LC-MS/MS analysis; format: ADME, microsome; details: read-out: Stability
[17] = Kinetic solubility of the compound in PAMPA buffer at 25 uM by nepheolometry method; format: physicochemical
[18] = Kinetic solubility of the compound in PAMPA buffer at 12.5 uM by nepheolometry method; format: physicochemical
P2X purinoceptor 3 = target: T3, P2X purinoceptor 3 (Homo sapiens, UniProt P56373); assay: Antagonist activity at human P2X3 receptor expressed in 1321N1 cells assessed as inhibition of ATP-induced calcium flux measured for 30 secs at 0.4 secs intervals by Flou-4-AM dye based fluorescence assay; format: cell-based; details: read-out: IC50
T3 sequence (P56373 whole entry): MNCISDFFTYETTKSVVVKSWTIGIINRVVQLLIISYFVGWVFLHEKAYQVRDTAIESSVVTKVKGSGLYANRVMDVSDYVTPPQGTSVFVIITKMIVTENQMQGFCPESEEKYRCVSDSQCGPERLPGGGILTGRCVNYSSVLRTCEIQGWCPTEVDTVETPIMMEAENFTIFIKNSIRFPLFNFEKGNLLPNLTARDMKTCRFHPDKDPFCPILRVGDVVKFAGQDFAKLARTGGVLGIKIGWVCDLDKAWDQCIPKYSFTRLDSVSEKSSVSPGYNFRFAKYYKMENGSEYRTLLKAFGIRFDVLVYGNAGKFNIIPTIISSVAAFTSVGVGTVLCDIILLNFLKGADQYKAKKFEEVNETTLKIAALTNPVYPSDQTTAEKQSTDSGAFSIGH

P2X purinoceptor 7 [19] = target: T2, P2X purinoceptor 7; assay: Antagonist activity at human P2X7 receptor in expressed in HEK293 cells assessed as inhibition of BzATP-induced EtBr uptake; format: cell-based

Row | Structure (SMILES) | inhibition [2] [%] | IC50 (P2X purinoceptor 7 [4]) [nM] | inhibition [5] [%] | inhibition [6] [%] | viability at 10 µM [7] [%] | IC50 (P2X purinoceptor 7 [8]) [nM] | further results
1 | COc1ccc(CCN(C)CCCC(C#N)(c2ccc(OC)c(OC)c2)C(C)C)cc1OC (centres undefined) | – | – | – | – | – | – | remaining at 0.5 h, 1 µM [1]: 10.5%
2 | CCOC(=O)c1cc2c(NC(=O)C34CC5CC(CC(C5)C3)C4)cccc2n(Cc2ccc(OC)cc2)c1=O | 86 | 62 | 44 | 88 | – | – | inhibition [3]: 7%
3 | COC(=O)c1cc2c(NC(=O)C34CC5CC(CC(C5)C3)C4)cccc2n(Cc2ccc([N+](=O)[O-])cc2)c1=O | 61 | 809 | 42 | 85 | – | – | inhibition [3]: 38%
4 | COC(=O)c1ccc(-c2ccc3c(NC(=O)CC45CC6CC(CC(C6)C4)C5)cccc3n2)cc1 | 90 | 7 | – | 95 | 97 | 33 | Activity (Homo sapiens [9]): Active; Activity (Homo sapiens [10]): Active; inhibition at 50 µM [11]: > 50%; IC50 [12]: 35600 nM
5 | O=C(CC12CC3CC(CC(C3)C1)C2)Nc1cccc2nc(-c3ccc(CO)cc3)ccc12 | 95 | 3 | – | 98 | 95 | 12 | Papp at 4 h, 50 µM [13]: 17.7 ×10⁻⁶ cm/s; remaining at 0.5 h, 1 µM [14]: 17%; Activity (Homo sapiens [9]): Active; Activity (Homo sapiens [10]): Active; Kinetic_solubility [15]: Soluble; inhibition at 50 µM [11]: > 50%; remaining at 0.5 h, 1 µM [16]: 11.2%; Kinetic_solubility [17]: Soluble; Kinetic_solubility [18]: Soluble; remaining at 0.5 h, 1 µM [1]: 17.9%
6 | O=C(CC12CC3CC(CC(C3)C1)C2)Nc1cccc2nc(-c3ccccc3)ccc12 | 78 | 447 | – | 86 | 98 | 434 | –
7 | CC(=O)[C@H]1CC[C@H]2[C@@H]3CCC4=CC(=O)CC[C@]4(C)[C@H]3CC[C@]12C [PROGESTERONE] | – | – | – | – | – | – | Papp at 4 h, 50 µM [13]: 36.6 ×10⁻⁶ cm/s; IC50 (P2X purinoceptor 3): 1600 nM
8 | Clc1cccc(-c2nnnn2Cc2cccnc2)c1Cl | – | – | – | – | – | – | IC50 (P2X purinoceptor 7 [19]): 300 nM
9 | Nc1ccc(-c2ccc3c(NC(=O)CC45CC6CC(CC(C6)C4)C5)cccc3n2)cc1 | 85 | 10 | – | 93 | 98 | 19 | Papp at 4 h, 50 µM [13]: 24.9 ×10⁻⁶ cm/s; remaining at 0.5 h, 1 µM [14]: 13.3%; Activity (Homo sapiens [9]): Active; Activity (Homo sapiens [10]): Active; Kinetic_solubility [15]: Soluble; inhibition at 50 µM [11]: > 50%; remaining at 0.5 h, 1 µM [16]: 10.6%; Kinetic_solubility [17]: Soluble; Kinetic_solubility [18]: Soluble; remaining at 0.5 h, 1 µM [1]: 15.5%
10 | O=C(CC12CC3CC(CC(C3)C1)C2)Nc1cccc2nc(-c3ccc([N+](=O)[O-])cc3)ccc12 | 79 | 73 | – | 94 | 93 | 113 | –
11 | O=C(CC12CC3CC(CC(C3)C1)C2)Nc1cccc2nc(-c3ccc(O)cc3)ccc12 | 79 | 8 | – | 95 | 94 | 6 | Papp at 4 h, 50 µM [13]: 16.4 ×10⁻⁶ cm/s; remaining at 0.5 h, 1 µM [14]: 14.5%; Activity (Homo sapiens [9]): Active; Activity (Homo sapiens [10]): Active; Kinetic_solubility [15]: Soluble; inhibition at 50 µM [11]: > 50%; remaining at 0.5 h, 1 µM [16]: 12.9%; IC50 [12]: 25600 nM; Kinetic_solubility [17]: Soluble; Kinetic_solubility [18]: Soluble; remaining at 0.5 h, 1 µM [1]: 21.5%
12 | O=C(CC1CCCCC1)Nc1cccc2nc(Cl)ccc12 | 90 | 385 | – | 95 | 92 | 335 | –
13 | O=C1NC(=O)C(C2CCN(C(=O)c3ccc(Cl)c(C(F)(F)F)c3)CC2)C1Cc1ccc(OS(=O)(=O)c2cccc3cnccc23)cc1 (centres undefined) | – | – | – | – | – | – | IC50 (P2X purinoceptor 7 [19]): 54 nM
14 | COC(=O)c1cc2c(NC(=O)C34CC5CC(CC(C5)C3)C4)cccc2n(Cc2ccc(F)cc2)c1=O | 66 | 888 | 35 | 86 | – | – | inhibition [3]: 12%
15 | O=C(CC12CC3CC(CC(C3)C1)C2)Nc1cccc2nc(-c3ccc(Cl)cc3)ccc12 | 89 | 123 | – | 90 | 98 | 178 | –
16 | CCCOC(=O)c1cc2c(NC(=O)C34CC5CC(CC(C5)C3)C4)cccc2n(Cc2ccc(OC)cc2)c1=O | 82 | 263 | 28 | 87 | – | – | inhibition [3]: 11%
17 | N[C@H]1CCN(Cc2ccc(Cl)c(C(=O)NCC34CC5CC(CC(C5)C3)C4)c2)C1 | – | – | – | – | – | – | IC50 (P2X purinoceptor 7 [19]): 85 nM
18 | COC(=O)c1cc2c(NC(=O)C34CC5CC(CC(C5)C3)C4)cccc2n(Cc2ccc(OC)cc2)c1=O | 76 | 120 | 49 | 87 | – | – | inhibition [3]: inactive
19 | CN([C@@H](Cc1ccc(OS(=O)(=O)c2cccc3cnccc23)cc1)C(=O)N1CCN(c2ccccc2)CC1)S(=O)(=O)c1cccc2cnccc12 | 79 | – | 96 | – | 93 | – | –
